Measurements: patent US9617264B2, “2,7-diazaspiro[3.5]nonane compounds” (REMYND NV, priority 2014, dated 2017)

Test system: INS-1E cells
Assay: Cytokine-induced apoptosis (caspase-3/7 activation, Caspase-Glo 3/7) in INS-1E rat insulinoma cells
Type: cell-based
Settings: cytokine mix (IFN-γ, IL-1, TNF-α), 24 hours, caspase 3/7 activity, read-out: CYT EC50
Description: The INS-1E cell line, a rat insulinoma cell line, has been characterized extensively. INS-1E cells respond to glucose by secreting insulin and, unlike most other immortalized n-cell lines, they do this in a consistent manner over time. The cells are sensitive to hyperglycemia-, free fatty acid (FFA)-, and cytokine-induced stress. Prolonged stress ultimately leads to induction of apoptotic pathways and, if stress is not counter-acted, to apoptosis. Caspase-3 and -7 play a central role downstream where various apoptotic pathways merge. As such, activation (i.e. cleavage) of these caspases forms a relevant primary read-out to evaluate protective activity of compounds against stress-induced apoptosis.
To evaluate the efficacy of different compounds to prevent induction of apoptosis, an in vitro screen was developed in which INS-1E cells were exposed to a cytokine mix (IFN-γ, 5 ng/ml; IL-1, 20 pg/ml; TNF-α, 0.25 ng/ml). The degree of induction of apoptosis was evaluated using a substrate for cleaved caspase-3 and -7, i.e. a proluminescent caspase-3/7 DEVD aminoluciferin substrate with a thermostable luciferase (Caspase-Glo® 3/7 assay; Promega, cat. G8092).
On day 0, INS-1E cells were plated in a white-walled 96-well microplate (Greiner, cat. 655098) at 20,000 cells per well in 100 μl complete medium (RPMI containing 11 mM glucose supplemented with 5% FCS, 100 IU/ml penicillin, 100 μg/ml streptomycin, 10 mM HEPES, 1 mM Sodium Pyruvate and 50 μM 2-Mercapto-ethanol). On day 2, 100 μl medium containing cytokines and compound dissolved in DMSO was added to the cells. Wells without cytokines containing DMSO and wells with cytokines and DMSO were included to evaluate the degree of caspase 3/7 activation by the cytokine mix. After 24 hours exposure to cytokines and/or compound, Caspase-Glo® 3/7 reagent was added to the cells and caspase activity was determined by measuring luminescence.
To evaluate compound efficacy, the “toxicity window” was calculated by subtracting caspase activity of wells without stressor from activity of wells with stressor but without compound. The amount of caspase activity in the latter wells was normalized to 1 and used as reference. Subsequently, caspase activity in the wells with stressor and varying concentrations of compound was calculated relative to the wells without compound. Plotting caspase activity vs the log 10 of the concentration of compound permitted calculation of the EC50 values for the compounds which typically lied between 0.0001 and 10 μM. Compounds with an EC50<10 μM were considered active.

EC50 [nM]	Structure (SMILES)
201	COc1ccc(S(=O)(=O)N2CCC3(CC2)CN(S(=O)(=O)c2ccc(OC)cc2)C3)cc1 [Cmpd001, 2,7-Bis((4-methoxyphenyl)sulfonyl)-2,7-diazaspiro[3.5]nonane]
40	COc1ccc(S(=O)(=O)N2CCC3(CC2)CN(S(=O)(=O)c2ccc(OC(F)F)cc2)C3)cc1 [Cmpd003, 2-((4-(Difluoromethoxy)phenyl)sulfonyl)-7-((4-methoxyphenyl)sulfonyl)-2,7-diazaspiro[3.5]nonane]
20	COc1ccc(S(=O)(=O)N2CCC3(CC2)CN(S(=O)(=O)c2ccc(Cl)cc2)C3)cc1 [Cmpd005, 2-((4-Chlorophenyl)sulfonyl)-7-((4-methoxyphenyl)sulfonyl)-2,7-diazaspiro[3.5]nonane]
178	COc1ccc(S(=O)(=O)N2CCC3(CC2)CN(C(=O)Cc2ccc(F)cc2)C3)cc1 [Cmpd006, 2-(4-Fluorophenyl)-1-(7-((4-methoxyphenyl)sulfonyl)-2,7-diazaspiro[3.5]nonan-2-yl)ethanone]
178	COc1ccc(S(=O)(=O)N2CCC3(CC2)CN(C(=O)Cc2ccccc2)C3)cc1 [Cmpd010, 1-(7-((4-Methoxyphenyl)sulfonyl)-2,7-diazaspiro[3.5]nonan-2-yl)-2-phenylethanone]
248	CCC(C(=O)N1CC2(CCN(S(=O)(=O)c3ccc(OC)cc3)CC2)C1)c1ccccc1 (centres unmarked) [Cmpd011, 1-(7-((4-Methoxyphenyl)sulfonyl)-2,7-diazaspiro[3.5]nonan-2-yl)-2-phenylbutan-1-one]
503	COc1ccc(S(=O)(=O)N2CCC3(CC2)CN(C(=O)C2CCOc4ccccc42)C3)cc1 (centres unmarked) [Cmpd021, Chroman-4-yl(7-((4-methoxyphenyl)sulfonyl)-2,7-diazaspiro[3.5]nonan-2-yl)methanone]
317	COc1ccc(S(=O)(=O)N2CCC3(CC2)CN(c2nc(-c4cnccn4)ns2)C3)cc1 [Cmpd038, 5-(7-((4-Methoxyphenyl)sulfonyl)-2,7-diazaspiro[3.5]nonan-2-yl)-3-(pyrazin-2-yl)-1,2,4-thiadiazole]
100	COc1ccc(S(=O)(=O)N2CCC3(CC2)CN(c2nc(-c4ccc(Cl)cc4)ns2)C3)cc1 [Cmpd039, 3-(4-Chlorophenyl)-5-(7-((4-methoxyphenyl)sulfonyl)-2,7-diazaspiro[3.5]nonan-2-yl)-1,2,4-thiadiazole]
41	CCOc1ccc(S(=O)(=O)N2CC3(CCN(S(=O)(=O)c4ccc(OC(F)F)cc4)CC3)C2)cc1 [Cmpd042, 7-((4-(Difluoromethoxy)phenyl)sulfonyl)-2-((4-ethoxyphenyl)sulfonyl)-2,7-diazaspiro[3.5]nonane]
86	O=S(=O)(c1ccc(OC(F)F)cc1)N1CCC2(CC1)CN(S(=O)(=O)c1ccc(Cl)cc1)C2 [Cmpd043, 2-((4-Chlorophenyl)sulfonyl)-7-((4-(difluoromethoxy)phenyl)sulfonyl)-2,7-diazaspiro[3.5]nonane]
188	O=S(=O)(c1ccc(OC(F)F)cc1)N1CCC2(CC1)CN(S(=O)(=O)c1ccc(F)cc1)C2 [Cmpd044, 7-((4-(Difluoromethoxy)phenyl)sulfonyl)-2-((4-fluorophenyl)sulfonyl)-2,7-diazaspiro[3.5]nonane]
14	COc1ccc(S(=O)(=O)N2CC3(CCN(S(=O)(=O)c4ccc(Cl)cc4)CC3)C2)cc1 [Cmpd047, 7-((4-Chlorophenyl)sulfonyl)-2-((4-methoxyphenyl)sulfonyl)-2,7-diazaspiro[3.5]nonane]
61	O=S(=O)(c1ccc(OC(F)F)cc1)N1CCC2(CC1)CN(S(=O)(=O)c1ccc(OC(F)F)cc1)C2 [Cmpd048, 2,7-Bis((4-(difluoromethoxy)phenyl)sulfonyl)-2,7-diazaspiro[3.5]nonane]
90	CCOc1ccc(S(=O)(=O)N2CCC3(CC2)CN(S(=O)(=O)c2ccc(OC(F)F)cc2)C3)cc1 [Cmpd049, 2-((4-(Difluoromethoxy)phenyl)sulfonyl)-7-((4-ethoxyphenyl)sulfonyl)-2,7-diazaspiro[3.5]nonane]
103	O=S(=O)(c1ccc(Cl)cc1)N1CCC2(CC1)CN(S(=O)(=O)c1ccc(OC(F)F)cc1)C2 [Cmpd050, 7-((4-Chlorophenyl)sulfonyl)-2-((4-(difluoromethoxy)phenyl)sulfonyl)-2,7-diazaspiro[3.5]nonane]
33	O=S(=O)(c1ccc(F)cc1)N1CCC2(CC1)CN(S(=O)(=O)c1ccc(OC(F)F)cc1)C2 [Cmpd051, 2-((4-(Difluoromethoxy)phenyl)sulfonyl)-7-((4-fluorophenyl)sulfonyl)-2,7-diazaspiro[3.5]nonane]

Test system: M17_3SYN cells
Assay: Paraquat-induced cytotoxicity (LDH) in α-synuclein over-expressing M17_3SYN neuroblastoma cells
Type: cell-based
Settings: Homo sapiens, Neuroblastoma cell, 48 h, 6 mM Paraquat, 2 days, LDH toxicity inhibition, read-out: SYN EC50
Description: A α-synuclein expression plasmid was constructed by subcloning the NcoI/XhoI fragment from 212T-SYN(WT) (Griffioen et al., Biochem Biophys Acta (2006) 1762(3):312-318) containing the cDNA of human wild type α-synuclein correspondingly into a standard mammalian expression vector pcDNA3.1 resulting in plasmid pcDNA3.1-SYNwt. Plasmids pcDNA3.1 and pcDNA3.1-SYNwt were transfected into human neuroblastoma cells (BE-M17; ATCC No. CRL-2267™) using lipofectamine reagent and subsequently, independent clonal cell lines with the plasmids stably integrated into the genome were selected by antibiotic resistance selection (Geneticin (G418)), resulting in cell lines M17.pcDNA3 and M17_3SYN. Overexpression of α-synuclein in the M17_3SYN cell line was confirmed by Western blot analysis.
Due to the high levels of α-synuclein, M17_3SYN cells were sensitive to paraquat, a well-known risk factor Parkinson's disease and of synuclein-dependent neuronal degeneration. Cytotoxicity of cells was measured by quantification of lactate dehydrogenase (LDH) levels. In dead cells, LDH leaked out of the cells into the medium due to a loss of plasma-membrane integrity.
Three days preceding the experiment, primary pre-cultures of M17.pcDNA3 (as possible control) and M17_3SYN cells were prepared, starting from a stock culture, at a density of 20.000-40.000 cells/cm2 in culture medium (Opti-MEM® Reduced Serum Medium with Phenol Red (Invitrogen, Cat. 31985-047) supplemented with 10% FCS, 1 mM sodium pyruvate, 1×NEAA, 500 μg/ml G418 and 0.5× antibiotic/antimycotic (ABAM)). 3 days later these primary pre-cultures were used as a starting point to make secondary pre-cultures at a density of 50.000-100.000 cells/cm^2. At the day of the experiment these secondary precultures were diluted to ˜0.5·10^6 cells/ml in detection medium (Opti-MEM® Reduced-Serum Medium without Phenol Red (Invitrogen, Cat. 11085-021) supplemented with 10% FCS, 1 mM sodium pyruvate, 1×NEAA, 500 μg/ml G418 and 0.5×ABAM) and 60 μL of this suspension was dispensed per well into a 96-well microtiter plate. After 3 hours of incubation at 37° C./5% CO2 an equal volume of detection medium containing a final concentration of 6 mM Paraquat was added and subsequently incubated for 2 days at 37° C./5% CO2. Then LDH activity was determined using the Promega Cytotox 96 Non-Radioactive cytotoxicity assay (Promega, Cat. G1780), according to the manufacturer's instructions. Cytotoxicity was defined as the ratio of LDH relative to the total LDH in the cells and supernatant.
The assay described above using the M17_3SYN cell line allowed screening compounds for their ability to decrease cytotoxicity in PQ-challenged cells. Compounds of the invention were tested for their ability to decrease toxicity at different concentrations, ranging from low non-effective concentrations to high effective concentrations. Afterwards, a dose-dependent inhibition curve was used to calculate the EC50. A compound was considered to be active in this test when it inhibited toxicity by more than 20% relative to untreated M17_3SYN cells at a concentration of […] or lower.

Structure (SMILES)	EC50 [nM]
COc1ccc(S(=O)(=O)N2CCC3(CC2)CN(S(=O)(=O)c2ccc(OC)cc2)C3)cc1 [Cmpd001, 2,7-Bis((4-methoxyphenyl)sulfonyl)-2,7-diazaspiro[3.5]nonane]	1.1
COc1ccc(S(=O)(=O)N2CCC3(CC2)CN(S(=O)(=O)c2ccc(Cl)cc2)C3)cc1 [Cmpd005, 2-((4-Chlorophenyl)sulfonyl)-7-((4-methoxyphenyl)sulfonyl)-2,7-diazaspiro[3.5]nonane]	6.4
CCC(C(=O)N1CC2(CCN(S(=O)(=O)c3ccc(OC)cc3)CC2)C1)c1ccccc1 (centres unmarked) [Cmpd011, 1-(7-((4-Methoxyphenyl)sulfonyl)-2,7-diazaspiro[3.5]nonan-2-yl)-2-phenylbutan-1-one]	66.4
O=S(=O)(c1ccc(OC(F)F)cc1)N1CCC2(CC1)CN(c1nc(Cc3ccc(F)cc3)ns1)C2 [Cmpd085, 5-(7-((4-(Difluoromethoxy)phenyl)sulfonyl)-2,7-diazaspiro[3.5]nonan-2-yl)-3-(4-fluorobenzyl)-1,2,4-thiadiazole]	541
COc1ccc(F)cc1S(=O)(=O)N1CCC2(CC1)CN(c1nc(Cc3ccc(F)cc3)ns1)C2 [Cmpd086, 5-(7-((5-Fluoro-2-methoxyphenyl)sulfonyl)-2,7-diazaspiro[3.5]nonan-2-yl)-3-(4-fluorobenzyl)-1,2,4-thiadiazole]	300
Cn1cc(S(=O)(=O)N2CCC3(CC2)CN(c2nc(Cc4ccc(F)cc4)ns2)C3)cn1 [Cmpd090, 3-(4-Fluorobenzyl)-5-(7-((1-methyl-1H-pyrazol-4-yl)sulfonyl)-2,7-diazaspiro[3.5]nonan-2-yl)-1,2,4-thiadiazole]	285
Cc1ccc(S(=O)(=O)N2CCC3(CC2)CN(c2nc(Cc4ccc(F)cc4)ns2)C3)s1 [Cmpd095, 3-(4-Fluorobenzyl)-5-(7-((5-methylthiophen-2-yl)sulfonyl)-2,7-diazaspiro[3.5]nonan-2-yl)-1,2,4-thiadiazole]	377
O=S(=O)(CC1CCCCC1)N1CCC2(CC1)CN(c1nc(Cc3ccc(F)cc3)ns1)C2 [Cmpd097, 5-(7-((Cyclohexylmethyl)sulfonyl)-2,7-diazaspiro[3.5]nonan-2-yl)-3-(4-fluorobenzyl)-1,2,4-thiadiazole]	190
O=S(=O)(N1CCOCC1)N1CCC2(CC1)CN(c1nc(Cc3ccc(F)cc3)ns1)C2 [Cmpd098, 4-((2-(3-(4-Fluorobenzyl)-1,2,4-thiadiazol-5-yl)-2,7-diazaspiro[3.5]nonan-7-yl)sulfonyl)morpholine]	1190
